According to patent US12194043B2, “Uridine phosphorylase inhibitors to treat or prevent pulmonary disease” (Tosk, Inc., priority 2020, dated 2025):
“Also recorded” adds a separate entry of the source.

Experiments:
[1] = Elimination t1/2 of Compound 1 in mice; conditions: mouse, in vivo
[2] = tested on: C57BL/6 male mice treated with bleomycin (pulmonary fibrosis); test: Bleomycin/pulmonary fibrosis study, lung histology (Masson's trichrome, Ashcroft fibrosis grading); format: in vivo; conditions: bleomycin OA day 0, 60 mg/kg IP BID days 7 through 20; for statistical significance of the decrease in fibrosis vs dosing vehicle: SPSS version 20
Text: FIG. 2. Figure is a chart providing histology scores for pulmonary tissue from mice treated with bleomycin (a well characterized lung toxin) and either dosing vehicle, UR, or TK-112690.
Thirty-three C57BL/6 male mice, 10-14 weeks at study initiation, were acclimatized for least 3 days. The mouse has been selected as is referenced in the literature as a representative species of choice for this experimental animal model. During acclimation and throughout the entire study duration, animals were housed within a limited access rodent facility and kept in groups of a maximum of 4 mice per cage. Mice were housed in polypropylene cages with solid bottoms and wood shavings or corn Cobb as bedding material. Animals were provided ad libitum with a commercial rodent diet and had free access to drinking water that is supplied to each cage via polyethylene bottles. The automatically controlled environmental conditions was set to maintain temperature at 20-26° C. with a relative humidity (RH) of 30-70%, a 12:12 hour light: dark cycle, and 10-15 air changes/hour in the study room. Animals were given a unique animal identification tail mark as a means of identification. This number also appeared on a cage card, which is visible on the front of each cage. The cage card also contains the study and group numbers, route of administration, gender, study director and arrival date.
Animals were randomly assigned to cages on arrival. Animals were assigned to treatment groups prior to treatment initiation. At study termination, surviving animals were weighed prior to euthanasia. Euthanasia was performed via anesthesia overdose and exsanguination.
The table below lists the experimental group(s) comprising the study.
Disease Induction. 75 uL of Bleomycin (section 4.5.) was administered on day 0 via oropharyngeal aspiration (O.A.). The mice were anesthetized via isoflurane/oxygen and suspended by their cranial incisors on a thin wire from an angled stand. The tongue was be gently held from the mouth using blunt forceps to visualize the base of the tongue and the pharynx. Bleomycin/saline suspension was pipetted onto posterior pharynx. Nostrils will be held gently closed. Respiration was monitored to ensure the suspension is fully aspirated.
Treatment. Groups 3 and 4 were treated via intraperitoneal (IP) injection at a dosing volume of 10 ml/kg twice daily, 6-8 hours between doses, from days 7 through 20.
Observations and Examinations. […]
Histology. […] Disease severity and collagen levels were assessed by the Ashcroft fibrosis grading system.
The resulting data were analyzed by SPSS, version 20.

plasma UR = test: Plasma UR concentration versus plasma Compound 1 concentration after continuous infusion via sc implanted osmotic pumps; format: in vivo; conditions: BDF-1 male mice; for effect on plasma UR: constant-rate sc infusion 667, 833 or 3000 mg/kg/day, plasma at 72 h or 24 h
Procedure: Solutions of Compound I were prepared at a concentration of 500 mg/mL in sterile PBS. Osmotic pumps (ALZET® micro-osmotic pump 2001D and 1003D, Alza Co) were loaded with 200 μL (2001D osmotic pump) and/or 100 μL (1003D osmotic pump) of TK-112690 solution.
BDF-1 male mice (n=6) were treated with a constant-rate infusion of 667, 833 or 3000 mg/kg/day doses of Compound I delivered via subcutaneously implanted osmotic pumps. Animals were anesthetized with 100 mg/kg ketamine prior to pump implantation. Surgical scissors were used to make an approximately 1 cm incision on the dorsal surface near the shoulder blade of animals. A hemostat was used to carve out a subcutaneous tunnel toward the anterior end of animal. Osmotic pumps were placed inside the subcutaneous tunnel. Incision was sealed with wound clips.
Blood collections were performed on animals anesthetized with ketamine (ip 100 mg/kg). Blood samples from animals treated with a constant-rate infusion of TK-112690 were collected at 72 hours for 667 mg/kg/day and 833 mg/kg/day and 24 hours for 3000 mg/kg/day after pump implantation. Whole blood (˜0.8 mL) was drawn through the retro-orbital sinus using a heparin coated micro-hematocrit tube and collected into an EDTA microtainer tube. Blood samples were transferred into fresh 1.5 mL microcentrifuge tubes and centrifuged for 10 minutes at 14,000×g using an Eppendorf Minispin Plus stored in a 4° C. refrigerator. Exactly 0.4 mL of plasma was transferred into fresh microcentrifuge tubes containing 2 μL of 10 mM 5-FU and vortexed at highest setting for approximately 5 seconds. The final 50 μM concentration of 5-FU served as an internal standard. Animals were sacrificed by cervical dislocation and properly disposed.
Blood samples from animals treated with a constant-rate infusion of compound I were collected at 72 hours for 667 mg/kg/day and 833 mg/kg/day and 24 hours for 3000 mg/kg/day after pump implantation. […]
A solid-phase extraction (SPE) of analytes (UR, Compound I and 5-FU) from plasma was conducted before HPLC analysis. […] Samples were transferred into fresh HPLC vials and analyzed. […]

[3] = cited: Deng et al., Science 2017; cited from earlier work

half-life [1] [h] | SMILES | less fibrosis (histology score) than mice treated with the dosing vehicle [2] [%] | statistical significance of the decrease in fibrosis vs dosing vehicle [2] | effect on plasma UR (plasma UR) | effect on plasma UR (plasma UR; listed as TK-112690) | slope of regression line, plasma UR concentration vs plasma Compound 1 concentration (plasma UR; continuous infusion of various amounts) | elimination t1/2 [3]
1 to 2 | Cc1cn2c(nc1=O)O[C@H]1[C@H](O)[C@@H](CO)O[C@H]12 [Compound 1] | 30 | statistically significant | elevate plasma UR in a linear fashion | elevate plasma UR in a linear fashion; also recorded: associated with higher levels of UR | 0.010 | 
 | O=c1ccn([C@@H]2O[C@H](CO)[C@@H](O)[C@H]2O)c(=O)[nH]1 [UR, uridine] | 7 | not statistically significant |  |  |  | only a few minutes
